Where two headings read alike, the source gives them in different places.

One assay addresses nSMase2 (Homo sapiens (Human), UniProt Q9NY59). Description: nSMase2 inhibition (Tables 1A, 1B). Format: biochemical.
The test system of a further assay is H9 cells and U1 cells. Briefly: Electron microscopy of HIV-infected H9 cells and TNF-α-stimulated U1 cells. In kind it is cell-based. The conditions noted are these: 10 μM for 6 h. The protocol:
Representative electron microscope images of H9 cells (FIG. 6A) and U1 cells (FIG. 6B) treated with MS882 (31) (10 μM) for 6 h following HIV infection (H9 cells) or TNF-α stimulation (U1 cells). […] Scale bar, 1 μm;

Another assay concerns HIV in U1 cells. Briefly: HIV replication (p24) in TNF-α-stimulated U1 cells. In kind it is cell-based. The conditions noted are these: TNF-α 500 ng/mL, 0.1 μM-10 μM, 12 h, 24 h, 48 h. As for the experimental part:
(§1) Quantification of HIV replication (p24 levels) in medium (top) and cell viability (bottom) of H9 cells (FIG. 4A), U1 cells (FIG. 4B), and human primary CD4+ cells (FIG. 4C) treated with nSMase2 inhibitor, MS882 (31). […] HIV replication and cell viability were measured at 12 h, 24 h, and 48 h after treatment of MS882 (31). Data are mean±S.D of n=3 per independent experiments/condition. *=p<0.05; **=p<0.01; ***=p<0.001 compared to uninfected control (H9 cells, primary human CD4+ cells), or non-TNFα-induced control (U1 cells). #=p<0.05; ##=p<0.01; ###=p<0.001 compared to HIV-infected or TNF-α-induced cells. One-Way ANOVA with Tukey post-hoc comparisons;

Assay [1] relates to HIV-1 Tat-regulated firefly luciferase reporter in TZM/Bl cells. Conditions: dose response.
In a further assay the test system is ceramides. Description: Plasma ceramides in HIV-infected humanized mice. In kind it is in vivo. The conditions noted are these: 10 mg/Kg for 6 weeks. As for the experimental part: Quantifications of multiple ceramides in plasma from uninfected humanized mice, HIV-infected humanized mice administered MS882 (31) (10 mg/Kg) or vehicle for 6 weeks. Data are mean±S.D of n=4-6 per group. *=p<0.05; **=p<0.01; ***=p<0.001 compared to uninfected humanized mice #=p<0.05; ##=p<0.01 compared to HIV-infected mice administered vehicle. One-Way ANOVA with Tukey post-hoc comparisons; Experimental drugs were delivered intraperitoneally at a dose of 10 mg/kg once daily beginning 5 weeks after HIV infection for a duration of 6 weeks. Drugs were reconstituted in 5% DMSO, 5% Tween-80 and 90% saline. Control mice injected with vehicle consisting of 5% DMSO, 5% Tween-80 in saline.

Assay [2] deals with HIV-MN in primary human CD4+ cells. Briefly: HIV replication (p24) in human primary CD4+ cells. Format: cell-based. The conditions noted are these: HIV-MN 200 ng/mL, 0.1 μM-10 μM, 12 h, 24 h, 48 h. The protocol:
as §1

For another assay, the system named is HIV1-Ada. Description: HIV-infected humanized mice (hu-NSG), viral load and cell populations. In kind it is in vivo. As for the experimental part: Humanization of NSG mice was determined 20 weeks following transplantation by flow cytometry (Miltenyl Biotec) using human specific antibodies directed against hCD45-APC (Leukocytes; Thermo Fisher), hCD3-PE (T cells; Biolegend), hCD14-PE/Cy7 (Macrophage; Biolegend), hCD19-BV421 (B cells; Biolegend). Percent humanization was calculated as a ratio for each of the human antibodies to a mouse specific antibody directed against mCD45-FITC (eBioscience). Mice>5% humanization (in each cell category) were included for experiments.
Reaction included a non-template control, non-enzyme control and sample was analyzed on an Applied Biosystem 7300 Real-Time PCR system (Life Technology). […] The dissociation stage was 95° C. for 15 sec, 60° C. for 1 min and 95° C. for 15 sec.
Drugs were reconstituted in 5% DMSO, 5% Tween-80 and 90% saline. Control mice injected with vehicle consisting of 5% DMSO, 5% Tween-80 in saline.

The next assay has as its system HIV Rf in H9 cells. Description: HIV replication in HIV-infected H9 cells, P24 ELISA of culture supernatants. In kind it is cell-based. The conditions noted are these: H9 cells infected with HIV, dose response. As for the experimental part: Controls included no-treatment and vehicle. Cell viability and P24 were measured every 24 h for 4 days.
For orientation: ELISA stands for enzyme-linked immunosorbent assay.

The mark [3] stands for this setting: nSMase2, compounds of formula (II), Table 1B, read-out: Activity* (IC50 category).
Where [4] appears, read: nSMase2 inhibitors of formula (I), Table 1A, read-out: IC50.
[5] abbreviates: daily administration for 6 weeks.

nSMase2, sequence (Q9NY59 whole entry, species assumed): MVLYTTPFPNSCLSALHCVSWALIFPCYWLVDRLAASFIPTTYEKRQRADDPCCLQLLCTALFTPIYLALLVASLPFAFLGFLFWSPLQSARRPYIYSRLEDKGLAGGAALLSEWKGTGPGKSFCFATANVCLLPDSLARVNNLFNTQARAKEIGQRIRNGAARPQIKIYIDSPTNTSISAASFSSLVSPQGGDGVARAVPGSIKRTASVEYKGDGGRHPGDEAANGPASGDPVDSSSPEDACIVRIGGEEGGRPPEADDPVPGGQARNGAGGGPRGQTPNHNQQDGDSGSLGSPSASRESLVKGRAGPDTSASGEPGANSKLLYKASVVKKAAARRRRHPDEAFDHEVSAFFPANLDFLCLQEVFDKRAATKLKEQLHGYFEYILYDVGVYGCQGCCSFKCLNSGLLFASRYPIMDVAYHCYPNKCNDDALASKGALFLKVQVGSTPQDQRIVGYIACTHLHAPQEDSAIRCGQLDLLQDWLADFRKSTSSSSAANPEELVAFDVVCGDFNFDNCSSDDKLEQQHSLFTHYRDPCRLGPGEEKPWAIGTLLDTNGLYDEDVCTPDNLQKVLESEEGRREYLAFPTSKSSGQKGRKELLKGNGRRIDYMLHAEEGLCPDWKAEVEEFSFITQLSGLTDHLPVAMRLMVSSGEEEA

For the molecule `COc1ccc(-c2c(C)sc3c(N4CC[C@@H](NC(C)=O)C4)nc(C)nc23)cc1OC` [29a-PROV], at nSMase2 (setting [3]), the IC50 – broadly, the concentration needed to halve the response being measured – was more than 100 µM.

In the case of `COc1cc(N2CC[C@@H](NC(C)=O)C2)c2nc(C)c(-c3ccc(OC)c(OC)c3)n2n1` [38-PROV], the IC50 at nSMase2 (setting [4]) was more than 1 µM.

As for `CC(=O)N[C@@H]1CCN(c2cc(Cl)nn3cc(C)nc23)C1` [9-PROV], the IC50 on nSMase2 (setting [4]) was more than 100 µM.

On to `COc1ccc(-c2csc3c(N4CC[C@@H](NC(C)=O)C4)ncnc23)cc1OC` [27-PROV], for which the concentration for half-maximal inhibition (IC50) on nSMase2 (setting [3]) is more than 100 µM.

As to `CC(=O)Nc1cccc(-c2c(C)nc3c(N4CC[C@@H](NC(C)=O)C4)cc(Cl)nn23)c1` [19-PROV], the IC50 at nSMase2 (setting [4]) is more than 100 µM.

For `COc1ccc(-c2csc3c(N4CC[C@@H](NC(C)=O)C4)nc(C)nc23)cc1OC` [30-PROV], at nSMase2 (setting [3]), the IC50 was more than 100 µM.

As for `CC(=O)N[C@@H]1CCN(c2cc(C)nn3c(-c4cccc(S(C)(=O)=O)c4)c(C)nc23)C1` [42-PROV], the IC50 on nSMase2 (setting [4]) is more than 1 µM.

In the case of `COc1ccc(-c2c(C)sc3c(N4CC[C@@H](NC(C)=O)C4)ncnc23)cc1OC` [28-PROV], at nSMase2 (setting [3]), the IC50 is more than 100 µM.

For the molecule `CC(=O)N[C@@H]1CCN(c2ccnn3cc(C)nc23)C1` [15-PROV], the IC50 on nSMase2 (setting [4]) was more than 10 µM.

Consider `CC(=O)N[C@@H]1CCN(c2cc(C)nn3c(C)c(C)nc23)C1` [48-PROV], for which the half-inhibitory concentration (IC50) at nSMase2 (setting [4]) was more than 1 µM.

Take `CC(=O)N[C@@H]1CCN(c2cc(C)nn3c(-c4ccc(O)cc4)c(C)nc23)C1` [47-PROV]: the IC50 on nSMase2 (setting [4]) is not above 1 µM.

Regarding `CC(=O)N[C@@H]1CCN(c2cc(C)nn3c(-c4ccc5c(c4)OCO5)c(C)nc23)C1` [40-PROV], at nSMase2 (setting [4]), the IC50 is not above 1 µM.

Regarding `CC(=O)N[C@@H]1CCN(c2cc(Cl)nn3c(-c4ccc(F)cc4)c(C)nc23)C1` [18-PROV], the IC50 on nSMase2 (setting [4]) was more than 100 µM.

Take `CC(=O)Nc1cccc(-c2c(C)nc3c(N4CC[C@@H](NC(C)=O)C4)cc(C)nn23)c1` [22-PROV]: the IC50 at nSMase2 (setting [4]) was more than 1 µM.

Consider `COc1ccc(-c2scc3c(N4CC[C@@H](NC(C)=O)C4)nc(Cl)nc23)cc1OC` [26-PROV], for which the IC50 at nSMase2 (setting [3]) is more than 100 µM.

In the case of `COc1ccc(-c2scc3c(N4CC[C@@H](NC(C)=O)C4)nc(C)nc23)cc1OC` [29b-PROV], on nSMase2 (setting [3]), the IC50 is more than 100 µM.

In the case of `CC(=O)N[C@@H]1CCN(c2cc(C)nn3c(I)c(C)nc23)C1` [23-PROV], the concentration for half-maximal inhibition (IC50) at nSMase2 (setting [4]) was more than 10 µM.

On to `COc1ccc(-c2c(C)nc3c(N4CC[C@@H](NC(C)=O)C4)cc(Cl)nn23)cc1` [11-PROV], for which, on nSMase2 (setting [4]), the concentration for half-maximal inhibition (IC50) was more than 100 µM.

For `COc1ccc(-c2c(C)sc3c(N4CC[C@@H](NC(C)=O)C4)nc(Cl)nc23)cc1OC` [25-PROV], the IC50 on nSMase2 (setting [3]) was more than 100 µM.

In the case of `COc1ccc(-c2csc3c(N4CC[C@@H](NC(C)=O)C4)nc(Cl)nc23)cc1OC` [24-PROV], the 50% inhibitory concentration (IC50) on nSMase2 (setting [3]) was more than 100 µM.

Turning to `COc1cccc(-c2c(C)nc3c(N4CC[C@@H](NC(C)=O)C4)cc(C)nn23)c1` [20-PROV], the IC50 on nSMase2 (setting [4]) is more than 1 µM.

In the case of `COc1ccc(-c2c(C)nc3c(N4CC[C@@H](NC(=O)C5CCCCC5)C4)cc(C)nn23)cc1` [Entry 31], the “endolysosomal morphology (electron microscopy)” value in the assay on H9 cells and U1 cells is “induced enlarged endolysosomal compartments engorged with EM-dense debris”. The “HIV replication (p24 levels in medium)” value (with HIV in U1 cells; in assay [2]) was “suppressed HIV-replication” throughout. Besides, the “luciferase activity in TZM/B1 cells” value in assay [1] is “reduced luciferase activity in TZM/B1 cells at the highest doses tested”. The “multiple ceramides in plasma” value in the assay on ceramides is reported as “decreased elevations of multiple ceramides”. In addition, in the assay on HIV1-Ada (10 mg/kg daily I.P. for 6 weeks), the “populations of human CD14+ macrophages” value was “selectively decreased populations of CD14+ macrophages”. The “HIV RNAs in tissues (spleen, lung, liver, brain), qRT-PCR for HIV1-p24” value in the assay on HIV1-Ada (setting [5]) is listed as “decreased”. Besides, in the assay with HIV1-Ada (setting [5]), the “HIV+ (p24+) macrophages (hCD14+) in spleen, lung, liver, brain” value is reported as “decreased”. Besides, in the assay with HIV1-Ada (daily intraperitoneal administration, HIV-infected humanized mice), the “plasma HIV viral load” value is “reduced plasma HIV viral load”. Also, the “mice with plasma HIV viral load reduced to below detectable levels” value in the assay on HIV1-Ada (daily intraperitoneal administration, individual mice) was 3 out of 5. Further, the “HIV replication (P24 ELISA of culture supernatants)” value in the assay with HIV Rf in H9 cells (listed as MS822 (31)) was “dose-dependently reduced HIV replication”; in the assay with HIV Rf in H9 cells (listed as MS882 (31)), “suppressed HIV-replication”.

As for `COc1cccc(-c2c(C)nc3c(N4CC[C@@H](NC(C)=O)C4)cc(Cl)nn23)c1` [14-PROV], on nSMase2 (setting [4]), the half-inhibitory concentration (IC50) was more than 100 µM.

The values above are taken from patent US20240115574A1, “INHIBITION OF nSMase FOR THE TREATMENT OF HUMAN IMMUNODEFICIENCY VIRUS INFECTION” (The Johns Hopkins University, priority 2018, published 2024).
